US8846653B2, “Delta-tocotrienol treatment and prevention of pancreatic cancer” (University of South Florida, priority 2006, dated 2014)

Tests used:
[1] = tested on: Caspase 8, Caspase 3, PARP, cytochrome C, caspase 9; experiment: Immunoblot for biomarkers of apoptosis (caspase cascade); format: cell-based, human; details: MIA PaCa2, 20 μM
Protocol: An aliquot of the cells were collected and cells lysed. The lysate was then run on a Western blot and cleavage of caspase 8, caspase 3, and PARP detected.
(§1) In addition to its chemopreventive effects, δ-Tocotrienol induces apoptosis in pancreatic cancer. MIA PaCa2 cells were treated with either δ-tocotrienol or vehicle for 24 hours. Cells were collected and stained with annexin V-FITC and analyzed by flow cytometry for apoptosis. […] MIA PaCa2 cells and HPDE 6C7 cells were treated with vehicle or δ-tocotrienol (20 μM) for 24 hours, then harvested and stained for TUNEL. […] Cell lysates were prepared from MIA PaCa2 cells treated with 8-tocotrienol (20 μM) at progressive time intervals and proteins from lysates were run by SDS PAGE and immunoblotted for biomarkers of apoptosis.

SW1990 cells [2] = experiment: Proliferation by MTT, increasing concentrations of δ-tocotrienol; format: cell-based, human; details: SW1990, at 24 hours; read-out: IC50 (inhibition of proliferation, MTT)
Protocol: FIG. 23 is a graph wherein SW1990 pancreatic cancer cells (3×10^3) were plated in 96 well plates and treated the following day with δ-tocotrienol. Proliferation was assessed by MTT at 24 hour intervals. […] HPDE 6C7 cells were also treated with increasing concentrations of 8-tocotrienol for 24 hours.
MIA PaCa2, SW1990, BXPC3, and HPDE 6C7 cells (3×10^3) were cultured as described in the Examples above, in 96-well plates and treated the following day with increasing concentrations of δ-tocotrienol.

[3] = Plasma and mouse tissue levels by HPLC-UV; format: in vivo
Excerpt: FIG. 52 is a graph showing tissue levels of delta-tocotrienol. *p=0.0044; # p=0.0034; † p=0.0181.

[4] = tested on: MIA PaCa-2 cells (pZWL vector and myrAKT); experiment: Cell death (trypan blue) in vector and myrAKT MIA PaCa-2 cells; format: cell-based, human; details: MIA PaCa-2 vector vs myr-AKT cells, 24 hours, compared to vehicle
Protocol: FIG. 12 is a graph wherein MIA PaCa-2 cells (pZWL vector and myrAKT) were treated without serum vehicle or δ-tocotrienol (50 μM) for 24 hours, with and without a 10-hour caspase 8/3 inhibitor pretreatment. Cells were also treated with TRAIL as a positive control. Cells were then harvested, fixed, permeablized and stained with trypan blue.
To further identify the role of AKT in the apoptotic pathways noted in Example 2, functional overexpression of CA-AKT was analyzed in Mia-PaCa2 pancreatic cancer cells. MIA PaCa-2 cells were treated with pZWL vector and myrAKT, a retroviral vector encoding myristoylated AKT, with or without serum, vehicle, or δ-tocotrienol (40 or 50 μM) for 24 hours, with and without a 10-hour caspase 8 inhibitor pretreatment. Cells were also treated with TRAIL as a positive control. Cells were then harvested, fixed, permeablized and stained with trypan blue.
The myristoylated AKT rescued δ-tocotrienol suppression PI3K-AKT signaling. The MiaPaCa-2 parental cell lines were stably transfected using constitutively active myristoylated AKT in a pWZL vector construct to generate MiaPaCa-2AKT cells. […] Lastly, pretreatment with caspase 3, 8 and 9 inhibitors rescued tocotrienol induced cell death.

MiaPaCa-2 cells = experiment: Annexin V-FITC staining, flow cytometry for apoptosis; format: cell-based, human; details: MiaPaCa-2, varying concentrations, 24 hours
Protocol: FIG. 3 is a graph wherein MIA PaCa-2 pancreatic cancer cells were treated with in varying concentrations of δ-tocotrienol or vehicle for 24 hours. Cells were collected and stained with Annexin V-FITC and analyzed by flow cytometry for apoptosis.
(§2) MiaPaCa2 and HPDE 6C7 cells were cultured, as discussed above, and treated with δ-tocotrienol or vehicle. […] MiaPaCa-2, BxPc-3, and SW1990 pancreatic cancer cells were treated with in varying concentrations of δ-tocotrienol or vehicle for 24 hours. The cells were then harvested for annexin V-FITC staining and analyzed by flow cytometry.

MIA PaCa-2 cells = experiment: Trypan blue cell death, δ-tocotrienol, 5-FU or combination, 24 hours; format: cell-based, human; details: MIA PaCa-2, 50 μM each
Protocol: MIA PaCa-2 cells were treated vehicle or an anti-proliferative treatment comprising 50 μM δ-tocotrienol, 50 μM 5-FU, or 50 μM δ-tocotrienol and 50 μM 5-FU for 24 hours. Cells were harvested, fixed, permeablized and stained with trypan blue.

MIA PaCa2 cells = experiment: TUNEL staining; format: cell-based, human; details: MIA PaCa2, 20 μM, 24 hours, vs vehicle or treated HPDE 6C7
Protocol: as §1

SW1990 cells [5] = experiment: Annexin V-FITC staining, flow cytometry for apoptosis; format: cell-based, human; details: SW1990, varying concentrations, 24 hours
Protocol: FIG. 5 is a graph wherein SW1990 pancreatic cancer cells were treated with in varying concentrations of δ-tocotrienol or vehicle for 24 hours. Cells were collected and stained with Annexin V-FITC and analyzed by flow cytometry for apoptosis.
as §2

[6] = tested on: oncogenic Ras signaling targets in tumors; experiment: Immunohistochemical staining of extracted xenograft tumors; format: in vivo, mice
Protocol: FIGS. 50A and B are immunohistochemical stains of the effects of δ-tocotrienol on oncogenic Ras signaling targets. […] A. A comparison of H&E, Ki67, and p-MAPK staining of control versus delta-tocotrienol treated MIA PaCa2 cells. B. A comparison of p-AKT, p27^kip1, and TUNEL staining of control versus delta-tocotrienol treated cells.
Tumors were extracted on the last day of treatment and imbedded in paraffin. Immunohistochemical staining was performed to determine the effects of δ-tocotrienol on oncogenic Ras signaling targets. […] Furthermore, the biomarker proteins p-MAPK and p-AKT were decreased and p27^kip1 expression was increased in δ-tocotrienol treated tumors. […] This is associated with inhibition of AKT signaling targets. Moreover, overexpression of myr AKT in Pancreatic Cancer cells rescues the effect δ-Tocotrienol induces apoptosis in vitro and in vivo.

[7] = tumors from treated mice vs control group

CC(C)=CCC/C(C)=C/CC/C(C)=C/CC[C@]1(C)CCc2cc(O)cc(C)c2O1 [T3 delta, delta tocotrienol]
mitochondrial pro-apoptotic proteins (cytochrome C release, cleavage of caspase 9) [1]: no significant effect
caspase cascade: cleavage of caspase 8, caspase 3, PARP ([1]; time dependent): activation of the caspase cascade
IC50 (SW1990 cells [2]): 20 to 25 µM
plasma level ([3]; mouse plasma): detectable in plasma
localization in the pancreas compared to liver and pancreatic tumor levels (factor) ([3]; mouse tissue): 10
cell death [4]: induced more cell death in the vector cells than the myr-AKT cells
induction of apoptosis (annexin V-FITC) (MiaPaCa-2 cells): dose dependent induction of apoptosis
cell death (Trypan Blue) (MIA PaCa-2 cells): significantly more than 5-FU alone
TUNEL staining (MIA PaCa2 cells): significant staining for TUNEL
induction of apoptosis (annexin V-FITC) (SW1990 cells [5]): dose dependent induction of apoptosis
p27^kip1 expression ([6]; treated tumors): increased
p-AKT ([6]; treated tumors): decreased
p-MAPK ([6]; treated tumors): decreased
Ki67 staining (proliferation) [6, 7]: decrease in Ki67
TUNEL staining (apoptosis) [6, 7]: induction of apoptosis
